According to patent publication US20060154903A1, “Betulinol derivatives as anti-cancer agents” (priority 2004, published 2006):
Where two headings read alike, the source gives them in different places.

Columns and labels:
[1] = system: MCF7; assay: In vitro cytotoxicity, Breast (2), MCF7; type: cell-based, human
[2] = system: 184B5/HER; assay: In vitro cytotoxicity, Breast (1), 184B5/HER; type: cell-based; settings: 1 × 10^−4 M
[3] = system: SF-268; assay: In vitro cytotoxicity, CNS (2), SF-268; type: cell-based, human
[4] = system: NCI-H460; assay: In vitro cytotoxicity, Lung (2), NCI-H460; type: cell-based, human
[5] = system: Bladder cancer cells; settings: 1 × 10^−4 M; Bladder (1), cell line not given
[6] = system: PC-3; assay: In vitro cytotoxicity, Prostate (2), PC-3; type: cell-based, human
[7] = system: DU-145; assay: In vitro cytotoxicity, Prostate (2), DU-145; type: cell-based, human
[8] = system: CAKI-1; assay: In vitro cytotoxicity, Renal (2), CAKI-1; type: cell-based, human
Method: (§1) However, these compounds were not tested on prostate cancer LNCaP cell line by NCI. […] The anti-tumor activity of the compounds was determined at three doses and the total growth inhibition kill effect as pertinent of the control at 24, 48, and 72 hours as presented in Table 11.

[9] = system: RXF 393; assay: In vitro cytotoxicity, Renal (2), RXF 393; type: cell-based, human
[10] = system: TK-10; assay: In vitro cytotoxicity, Renal (2), TK-10; type: cell-based, human
Method: as §1

[11] = system: T-47d; assay: In vitro cytotoxicity, Breast (2), T-47d; type: cell-based, human
[12] = system: OVCAR-5; assay: In vitro cytotoxicity, Ovarian (2), OVCAR-5; type: cell-based, human
Method: as §1

[13] = system: OVACR-3; assay: In vitro cytotoxicity, Ovarian (2), OVACR-3; type: cell-based, human
Method: as §1

[14] = system: U251; assay: In vitro cytotoxicity, CNS (2), U251; type: cell-based, human
[15] = system: MALME-3M; assay: In vitro cytotoxicity, Melanoma (2), MALME-3M; type: cell-based, human
[16] = system: HOP-92; assay: In vitro cytotoxicity, Lung (2), HOP-92; type: cell-based, human
Method: as §1

[17] = system: NCI-H322M; assay: In vitro cytotoxicity, Lung (2), NCI-H322M; type: cell-based, human
Method: as §1

[18] = system: different human tumor cell lines; assay: In vitro cell toxicity test by NCI, tumor cell line panel; type: cell-based; settings: tested by NCI; comparison among compounds 2, 3, 4 and 5
[19] = system: human prostate cancer LNCaP cell line; assay: MTT cytotoxicity assay, LNCaP; type: cell-based; settings: LNCaP; for inhibition at 100 µM / inhibition at 10 µM / inhibition at 1 µM: Homo sapiens, read-out: Growth Inhibition %; for inhibition at 100 µM: 1 × 10^−4 M; for inhibition at 10 µM: 1 × 10^−5 M; for inhibition at 1 µM: 1 × 10^−6 M
Method: The human prostate cancer LNCaP, PC-3, and DU-145 cell lines, as well as human fibroblast cell line, were obtained from the American Type Culture Collection (“ATCC”) and maintained in RPMI-1640, F-12k, and MEM mediums, respectively, supplemented with 10% FBS. Cell lines were maintained at 37° C. under a humidified atmosphere and 5% CO2 for testing of the cytotoxicity of betulinol derivatives. The cytotoxicity assay was performed using MTT assay according to the instructions of ATCC protocol. Cells 1×10^5 in 0.1 ml/well were plated in 96-well culture plates (Costar) and incubated with a different dilution of betulinol derivatives for 24, 48, and 72 hours. Ten μl of 3-[4,5-dimethylthiazol-2-yl]-2,5 diphenyl tetrazolium bromide was added into each well at the end of each incubation period. The reaction product, formazan, was dissolved in the detergent, and the absorbance was read at 540 nm (Ref).
as §1

[20] = system: carcinoma cell line CO-115 of the large intestine; settings: cytotoxic activity; cited from earlier work
[21] = Tolerability of solubilized drug in mice with prostate cancer cell xenografts; type: in vivo; settings: final concentration of 22% ethanol and 2×10^−3 mol per liter of betulonic acid
Method: In the present experiment, twelve male athymic mice were utilized. Seven to ten million cells, from a prostate cancer LNCaP cell line culture, were suspended homogenously in a Matrigel basement membrane matrix and transplanted in mice as xenografts. Tumors were visible within a week. […] Control groups of mice were also injected daily with a solution containing 22% ethanol in phosphate buffer solution (PBS) containing 4% albumin for a duration of 24 days. […] The volume of the tumors was determined daily using a caliper in order to observe any change in the tumor volume (FIG. 12), calculated according to the formula π/6(1×w×h). Mice were sacrificed by CO2 asphyxiation on day 24 after the first injection (FIGS. 13A-D). Total percent increase in tumor volume in drug treated and control groups was assessed (FIG. 14).

[22] = Solubility in DMSO diluted with culture medium (GC)
Method: The residue was dissolved in chloroform analyzed on GC.
Ethyl ether was then evaporated. […] Concentration of drug in the above solutions was analyzed by GC and determined from the standard solubility curve.

## C=C(C)C1CCC2(COC)CCC3(C)C(CCC4C5(C)CCC(OC)C(C)(C)C5CCC43C)C12 (stereo not shown) [Compound 7, Betulin Dimethyl ether (Cornelon)]
[1]; 1 × 10^−4 M
  Percent Killed: 97%
[2]
  Percent Killed: Toxic
[3]; 1 × 10^−4 M
  Percent Killed: 100%
[4]; 1 × 10^−4 M
  Percent Killed: 80%
[5]
  Percent Killed: 30%

## C=C(C)[C@@H]1CC[C@]2(COC(C)=O)CC[C@]3(C)[C@H](CC[C@@H]4[C@@]5(C)CC[C@H](OC(C)=O)C(C)(C)[C@@H]5CC[C@]43C)[C@@H]12 [Compound 6, Betulin Diacetate]
[6]; 1 × 10^−4 M
  Percent Killed: 25%
[6]; 1 × 10^−5 M
  Percent Killed: 15%
[7]; 1 × 10^−4 M
  Percent Killed: 100%
[7]; 1 × 10^−5 M
  Percent Killed: 100%
[7]; 1 × 10^−6 M
  Percent Killed: 100%
[7]; 1 × 10^−7 M
  Percent Killed: 100%
[7]; 1 × 10^−8 M
  Percent Killed: 27%
[8]; 1 × 10^−4 M
  Percent Killed: 100%
[8]; 1 × 10^−5 M
  Percent Killed: 100%
[8]; 1 × 10^−6 M
  Percent Killed: 100%
[9]; 1 × 10^−4 M
  Percent Killed: 100%
[9]; 1 × 10^−5 M
  Percent Killed: 100%
[9]; 1 × 10^−6 M
  Percent Killed: 100%
[9]; 1 × 10^−7 M
  Percent Killed: 97%
[9]; 1 × 10^−8 M
  Percent Killed: 15%
[10]; 1 × 10^−4 M
  Percent Killed: 100%
[10]; 1 × 10^−5 M
  Percent Killed: 100%
[10]; 1 × 10^−6 M
  Percent Killed: 49%
[1]; 1 × 10^−4 M
  Percent Killed: 100%
[1]; 1 × 10^−5 M
  Percent Killed: 100%
[1]; 1 × 10^−6 M
  Percent Killed: 100%
[1]; 1 × 10^−7 M
  Percent Killed: 100%
[11]; 1 × 10^−4 M
  Percent Killed: 100%
[11]; 1 × 10^−5 M
  Percent Killed: 100%
[11]; 1 × 10^−6 M
  Percent Killed: 100%
[11]; 1 × 10^−7 M
  Percent Killed: 23%
[12]; 1 × 10^−4 M
  Percent Killed: 100%
[12]; 1 × 10^−5 M
  Percent Killed: 100%
[12]; 1 × 10^−6 M
  Percent Killed: 100%
[13]; 1 × 10^−4 M
  Percent Killed: 100%
[13]; 1 × 10^−5 M
  Percent Killed: 100%
[13]; 1 × 10^−6 M
  Percent Killed: 96%
[14]; 1 × 10^−4 M
  Percent Killed: 100%
[14]; 1 × 10^−5 M
  Percent Killed: 100%
[14]; 1 × 10^−6 M
  Percent Killed: 100%
[14]; 1 × 10^−7 M
  Percent Killed: 100%
[3]; 1 × 10^−4 M
  Percent Killed: 100%
[3]; 1 × 10^−5 M
  Percent Killed: 100%
[3]; 1 × 10^−6 M
  Percent Killed: 100%
[3]; 1 × 10^−7 M
  Percent Killed: 75%
[3]; 1 × 10^−8 M
  Percent Killed: 15%
[15]; 1 × 10^−4 M
  Percent Killed: 100%
[15]; 1 × 10^−5 M
  Percent Killed: 100%
[15]; 1 × 10^−6 M
  Percent Killed: 100%
[15]; 1 × 10^−7 M
  Percent Killed: 100%
[15]; 1 × 10^−8 M
  Percent Killed: 98%
[16]; 1 × 10^−4 M
  Percent Killed: 100%
[16]; 1 × 10^−5 M
  Percent Killed: 100%
[16]; 1 × 10^−6 M
  Percent Killed: 100%
[4]; 1 × 10^−4 M
  Percent Killed: 100%
[4]; 1 × 10^−5 M
  Percent Killed: 100%
[4]; 1 × 10^−6 M
  Percent Killed: 100%
[4]; 1 × 10^−7 M
  Percent Killed: 25%
[17]; 1 × 10^−4 M
  Percent Killed: 100%
[17]; 1 × 10^−5 M
  Percent Killed: 100%
[17]; 1 × 10^−6 M
  Percent Killed: 100%

## C=C(C)C1CCC2(C=O)CCC3(C)C(CCC4C5(C)CCC(=O)C(C)(C)C5CCC43C)C12 (stereo not shown) [Compound 5, Betulon Aldehyde]
[1]; 1 × 10^−4 M
  Percent Killed: 68%
[3]; 1 × 10^−4 M
  Percent Killed: 27%
[4]; 1 × 10^−4 M
  Percent Killed: 89%
[18]
  cell growth inhibitory properties against different human tumor cell lines: most effective inhibition of cell growth without selective activity
[5]
  Percent Killed: 29%

## C=C(C)[C@@H]1CC[C@]2(C(=O)O)CC[C@]3(C)[C@H](CC[C@@H]4[C@@]5(C)CC[C@H](O)C(C)(C)[C@@H]5CC[C@]43C)[C@@H]12 [Compound 2, Betulinic Acid]
[19]; 24 hours, 2.5 × 10^−5 (M)
  Growth Inhibition %: 41.0%
[19]; 24 hours, 2.5 × 10^−6 (M)
  Growth Inhibition %: 24.6%
[19]; 24 hours, 2.5 × 10^−7 (M)
  Growth Inhibition %: 11.72%
[19]; 48 hours, 2.5 × 10^−5 (M)
  Growth Inhibition %: 73.3%
[19]; 48 hours, 2.5 × 10^−6 (M)
  Growth Inhibition %: 69.4%
[19]; 48 hours, 2.5 × 10^−7 (M)
  Growth Inhibition %: 62.8%
[20]
  LD 50: 0.375 mg/mL

## C=C(C)[C@@H]1CC[C@]2(CO)CC[C@]3(C)[C@H](CC[C@@H]4[C@@]5(C)CC[C@H](OC(C)=O)C(C)(C)[C@@H]5CC[C@]43C)[C@@H]12 [Compound 8, 3-Acetoxy Betulin]
[19]; 24 hours, 2.5 × 10^−5 (M)
  Growth Inhibition %: 12.4%
[19]; 24 hours, 2.5 × 10^−6 (M)
  Growth Inhibition %: 10.4%
[19]; 24 hours, 2.5 × 10^−7 (M)
  Growth Inhibition %: 0%
[19]; 48 hours, 2.5 × 10^−5 (M)
  Growth Inhibition %: 28.3%
[19]; 48 hours, 2.5 × 10^−6 (M)
  Growth Inhibition %: 44.7%
[19]; 48 hours, 2.5 × 10^−7 (M)
  Growth Inhibition %: 17.4%

## C=C(C)C1CCC2(C(=O)NCCCCC(NC(=O)OC(C)(C)C)C(=O)O)CC[C@]3(C)[C@H](CC[C@@H]4[C@@]5(C)CCC(=O)C(C)(C)[C@@H]5CC[C@]43C)C12 (stereo partly shown) [Monomer-Boc]
[21]
  tolerability in mice: well tolerated
[22]
  Concentration of drug (mg/mL): 0.7 mg/mL
  Concentration of drug (mol/L): 0.001 mol/L

## C=C(C)C1CCC2(C(=O)NCCCCC(NC(=O)OC(C)(C)C)C(=O)OC)CC[C@]3(C)[C@H](CC[C@@H]4[C@@]5(C)CCC(=O)C(C)(C)[C@@H]5CC[C@]43C)C12 (stereo partly shown) [Monomer]
[19]; 24 h, 24 hours
  inhibition at 100 µM: 76.5 ± 22.6%
  inhibition at 10 µM: 19 ± 14.4%
  inhibition at 1 µM: 5.5 ± 7.32%
[19]; 48 h, 48 hours
  inhibition at 100 µM: ~80%
  inhibition at 10 µM: 36.8%
  inhibition at 1 µM: 15 ± 11.2%
[19]; 72 h, 72 hours
  inhibition at 100 µM: 79.2 ± 16.5%
  inhibition at 10 µM: 40.5 ± 33.6%
  inhibition at 1 µM: 17.2 ± 32.5%

## C=C(C)[C@@H]1CC[C@]2(C=O)CC[C@]3(C)[C@H](CC[C@@H]4[C@@]5(C)CC[C@H](O)C(C)(C)[C@@H]5CC[C@]43C)[C@@H]12 [Compound 3, Betulin Aldehyde]
[19]; 24 hours, 2.5 × 10^−5 (M)
  Growth Inhibition %: 29.5%
[19]; 24 hours, 2.5 × 10^−6 (M)
  Growth Inhibition %: 11.0%
[19]; 24 hours, 2.5 × 10^−7 (M)
  Growth Inhibition %: 6.34%
[19]; 48 hours, 2.5 × 10^−5 (M)
  Growth Inhibition %: 72.3%
[19]; 48 hours, 2.5 × 10^−6 (M)
  Growth Inhibition %: 40.9%
[19]; 48 hours, 2.5 × 10^−7 (M)
  Growth Inhibition %: 27.6%
